The source made the active and inactive calls. No cut-off for these calls is given here.
What was measured:
HeLa [1] = test: Antiproliferative activity against human HeLa cells at 100 ug/ml after 48 hrs by BrdUrd incorporation assay; assay type: functional; conditions: read-out: GI
[2] = Antiproliferative activity against African green monkey Vero cells at 100 ug/ml after 48 hrs by BrdUrd incorporation assay; assay type: cell-based; conditions: chlorocebus sabaeus, read-out: GI
T47D [3] = test: Antiproliferative activity against human T47D cells at 100 ug/ml after 24 hrs by BrdUrd incorporation assay; assay type: functional; conditions: read-out: GI
Vero [4] = test: Antiproliferative activity against African green monkey Vero cells at 100 ug/ml after 24 hrs by BrdUrd incorporation assay; assay type: cell-based; conditions: chlorocebus sabaeus
A549 [5] = test: Antiproliferative activity against human A549 cells at 100 ug/ml after 72 hrs by BrdUrd incorporation assay; assay type: functional; conditions: A549, 72 h, read-out: GI
[6] = Antiproliferative activity against African green monkey Vero cells at 100 ug/ml after 72 hrs by BrdUrd incorporation assay; assay type: cell-based; conditions: chlorocebus sabaeus, read-out: GI
HeLa [7] = test: Antiproliferative activity against human HeLa cells at 100 ug/ml after 24 hrs by BrdUrd incorporation assay; assay type: functional; conditions: read-out: GI
T47D [8] = test: Antiproliferative activity against human T47D cells at 100 ug/ml after 72 hrs by BrdUrd incorporation assay; assay type: functional; conditions: read-out: GI
HeLa [9] = test: Antiproliferative activity against human HeLa cells at 100 ug/ml after 72 hrs by BrdUrd incorporation assay; assay type: functional; conditions: read-out: GI
A549 [10] = test: Antiproliferative activity against human A549 cells at 100 ug/ml after 24 hrs by BrdUrd incorporation assay; assay type: functional; conditions: A549, 24 h, read-out: GI
T47D [11] = test: Antiproliferative activity against human T47D cells at 100 ug/ml after 48 hrs by BrdUrd incorporation assay; assay type: functional; conditions: read-out: GI
A549 [12] = test: Antiproliferative activity against human A549 cells at 100 ug/ml after 48 hrs by BrdUrd incorporation assay; assay type: functional; conditions: A549, 48 h, read-out: GI
Vero [13] = test: Antiproliferative activity against African green monkey Vero cells after 24 hrs by BrdUrd incorporation assay; assay type: cell-based; conditions: chlorocebus sabaeus
Vero [14] = test: Antiproliferative activity against African green monkey Vero cells after 72 hrs by BrdUrd incorporation assay; assay type: cell-based; conditions: Chlorocebus sabaeus
HeLa [15] = test: Antiproliferative activity against human HeLa cells at 50 ug/ml after 72 hrs by BrdUrd incorporation assay; assay type: functional; conditions: read-out: GI
[16] = Antiproliferative activity against African green monkey Vero cells at 50 ug/ml after 72 hrs by BrdUrd incorporation assay; assay type: cell-based; conditions: chlorocebus sabaeus, read-out: GI
TOV112D [17] = test: Antiproliferative activity against human TOV112D cells at 50 ug/ml after 24 hrs by BrdUrd incorporation assay; assay type: functional; conditions: read-out: GI
TOV112D [18] = test: Antiproliferative activity against human TOV112D cells at 50 ug/ml after 72 hrs by BrdUrd incorporation assay; assay type: functional; conditions: read-out: GI
TOV112D [19] = test: Antiproliferative activity against human TOV112D cells after 24 hrs by BrdUrd incorporation assay; assay type: functional, cell-based
HeLa [20] = test: Antiproliferative activity against human HeLa cells after 72 hrs by BrdUrd incorporation assay; assay type: functional, cell-based
T47D [21] = test: Antiproliferative activity against human T47D cells after 24 hrs by BrdUrd incorporation assay; assay type: functional, cell-based
A549 [22] = test: Antiproliferative activity against human A549 cells at 50 ug/ml after 24 hrs by BrdUrd incorporation assay; assay type: functional; conditions: A549, 24 h, read-out: GI
T47D [23] = test: Antiproliferative activity against human T47D cells at 50 ug/ml after 24 hrs by BrdUrd incorporation assay; assay type: functional; conditions: read-out: GI
T47D [24] = test: Antiproliferative activity against human T47D cells after 48 hrs by BrdUrd incorporation assay; assay type: functional, cell-based
TOV112D [25] = test: Antiproliferative activity against human TOV112D cells at 50 ug/ml after 48 hrs by BrdUrd incorporation assay; assay type: functional; conditions: read-out: GI
HeLa [26] = test: Antiproliferative activity against human HeLa cells after 24 hrs by BrdUrd incorporation assay; assay type: functional, cell-based
A549 [27] = test: Antiproliferative activity against human A549 cells after 24 hrs by BrdUrd incorporation assay; assay type: functional, cell-based; conditions: A549, 24 h
T47D [28] = test: Antiproliferative activity against human T47D cells after 72 hrs by BrdUrd incorporation assay; assay type: functional, cell-based
A549 [29] = test: Antiproliferative activity against human A549 cells after 48 hrs by BrdUrd incorporation assay; assay type: functional, cell-based; conditions: A549, 48 h
T47D [30] = test: Antiproliferative activity against human T47D cells at 50 ug/ml after 72 hrs by BrdUrd incorporation assay; assay type: functional; conditions: read-out: GI
[31] = Antiproliferative activity against African green monkey Vero cells at 50 ug/ml after 48 hrs by BrdUrd incorporation assay; assay type: cell-based; conditions: chlorocebus sabaeus, read-out: GI
A549 [32] = test: Antiproliferative activity against human A549 cells after 72 hrs by BrdUrd incorporation assay; assay type: functional, cell-based; conditions: A549, 72 h
T47D [33] = test: Antiproliferative activity against human T47D cells at 50 ug/ml after 48 hrs by BrdUrd incorporation assay; assay type: functional; conditions: read-out: GI
Vero [34] = test: Antiproliferative activity against African green monkey Vero cells after 48 hrs by BrdUrd incorporation assay; assay type: cell-based; conditions: Chlorocebus sabaeus
Vero [35] = test: Antiproliferative activity against African green monkey Vero cells at 50 ug/ml after 24 hrs by BrdUrd incorporation assay; assay type: cell-based; conditions: chlorocebus sabaeus
A549 [36] = test: Antiproliferative activity against human A549 cells at 50 ug/ml after 48 hrs by BrdUrd incorporation assay; assay type: functional; conditions: A549, 48 h, read-out: GI
HeLa [37] = test: Antiproliferative activity against human HeLa cells after 48 hrs by BrdUrd incorporation assay; assay type: functional, cell-based
HeLa [38] = test: Antiproliferative activity against human HeLa cells at 50 ug/ml after 24 hrs by BrdUrd incorporation assay; assay type: functional; conditions: read-out: GI
TOV112D [39] = test: Antiproliferative activity against human TOV112D cells after 48 hrs by BrdUrd incorporation assay; assay type: functional, cell-based
HeLa [40] = test: Antiproliferative activity against human HeLa cells at 50 ug/ml after 48 hrs by BrdUrd incorporation assay; assay type: functional; conditions: read-out: GI
TOV112D [41] = test: Antiproliferative activity against human TOV112D cells after 72 hrs by BrdUrd incorporation assay; assay type: functional, cell-based
A549 [42] = test: Antiproliferative activity against human A549 cells at 50 ug/ml after 72 hrs by BrdUrd incorporation assay; assay type: functional; conditions: A549, 72 h, read-out: GI
HeLa [43] = test: Induction of necrosis in human HeLa cells at 10 ug/ml after 72 hrs by fluorescence microscopic analysis; assay type: functional
T47D [44] = test: Induction of apoptosis in human T47D cells at 10 ug/ml after 72 hrs by fluorescence microscopic analysis; assay type: functional, cell-based
Vero [45] = test: Induction of necrosis in African green monkey Vero cells at 10 ug/ml after 72 hrs by fluorescence microscopic analysis; assay type: functional, cell-based; conditions: Chlorocebus sabaeus
T47D [46] = test: Induction of necrosis in human T47D cells at 10 ug/ml after 72 hrs by fluorescence microscopic analysis; assay type: functional, cell-based
Vero [47] = test: Induction of apoptosis in African green monkey Vero cells at 10 ug/ml after 72 hrs by fluorescence microscopic analysis; assay type: functional, cell-based; conditions: Chlorocebus sabaeus
HeLa [48] = test: Induction of apoptosis in human HeLa cells at 10 ug/ml after 72 hrs by fluorescence microscopic analysis; assay type: functional

| Compound | IC50 (Vero [13]) [µM] | IC50 (Vero [14]) [µM] | inhibition of growth at 50 µg/mL (HeLa [15]) [%] | inhibition at 72 h, 50 ug/ml [16] [%] | inhibition of growth at 50 µg/mL (TOV112D [17]) [%] | inhibition of growth at 50 µg/mL (TOV112D [18]) [%] | IC50 (TOV112D [19]) [µM] | IC50 (HeLa [20]) [µM] | IC50 (T47D [21]) [µM] | inhibition of growth at 50 µg/mL (A549 [22]) [%] | inhibition of growth at 50 µg/mL (T47D [23]) [%] | IC50 (T47D [24]) [µM] | inhibition of growth at 50 µg/mL (TOV112D [25]) [%] | IC50 (HeLa [26]) [µM] | IC50 (A549 [27]) [µM] | IC50 (T47D [28]) [µM] | IC50 (A549 [29]) [µM] | inhibition of growth at 50 µg/mL (T47D [30]) [%] | inhibition at 48 h, 50 ug/ml [31] [%] | IC50 (A549 [32]) [µM] | further results |
| --- | --- | --- | --- | --- | --- | --- | --- | --- | --- | --- | --- | --- | --- | --- | --- | --- | --- | --- | --- | --- | --- |
| Nc1nc2[nH]cc(CCc3ccc(C(=O)N[C@@H](CCC(=O)O)C(=O)O)cc3)c2c(=O)[nH]1 [PEMETREXED] |  |  |  |  |  |  |  |  |  |  |  |  |  |  |  |  |  |  |  |  | inhibition of growth at 100 µg/mL (HeLa [1]): 10%; inhibition at 48 h, 100 ug/ml [2]: 10%; inhibition of growth at 100 µg/mL (T47D [3]): 10%; growth inhibition (GI) (Vero [4]): 5%; inhibition of growth at 100 µg/mL (A549 [5]): 50%; inhibition at 72 h, 100 ug/ml [6]: 20%; inhibition of growth at 100 µg/mL (HeLa [7]): 5%; inhibition of growth at 100 µg/mL (T47D [8]): 30%; inhibition of growth at 100 µg/mL (HeLa [9]): 20%; inhibition of growth at 100 µg/mL (A549 [10]): 10%; inhibition of growth at 100 µg/mL (T47D [11]): 20%; inhibition of growth at 100 µg/mL (A549 [12]): 30% |
| O=c1c(-c2cccs2)nnc2n1CCN2c1cccc(Cl)c1 | 80 | 80 | 100 | 100 | 90 | 100 | 80 | 80 | 80 | 90 | 100 | 80 | 100 | 80 | 80 | 80 | 80 | 100 | 100 | 80 | inhibition of growth at 50 µg/mL (T47D [33]): 100%; IC50 (Vero [34]): 80 µM; growth inhibition (GI) (Vero [35]): 100%; inhibition of growth at 50 µg/mL (A549 [36]): 100%; IC50 (HeLa [37]): 80 µM; inhibition of growth at 50 µg/mL (HeLa [38]): 90%; IC50 (TOV112D [39]): 80 µM; inhibition of growth at 50 µg/mL (HeLa [40]): 100%; IC50 (TOV112D [41]): 80 µM; inhibition of growth at 50 µg/mL (A549 [42]): 100% |
| O=c1c(-c2cccs2)nnc2n1CCN2c1ccc(Cl)c(Cl)c1 | > 140 | 80 | 100 | 90 | 90 | 100 | 80 | 70 | 80 | 90 | 90 | 70 | 100 | 140 | 80 | 70 | 70 | 100 | 50 | 70 | Activity (HeLa [43]): 95%; Activity (T47D [44]): Active; Activity (Vero [45]): Active; Activity (T47D [46]): Active; Activity (Vero [47]): Active; Activity (HeLa [48]): 5%; inhibition of growth at 50 µg/mL (T47D [33]): 100%; IC50 (Vero [34]): 140 µM; growth inhibition (GI) (Vero [35]): 25%; inhibition of growth at 50 µg/mL (A549 [36]): 100%; IC50 (HeLa [37]): 80 µM; inhibition of growth at 50 µg/mL (HeLa [38]): 50%; IC50 (TOV112D [39]): 70 µM; inhibition of growth at 50 µg/mL (HeLa [40]): 90%; IC50 (TOV112D [41]): 70 µM; inhibition of growth at 50 µg/mL (A549 [42]): 100% |
| O=c1c(-c2cccs2)nnc2n1CCN2c1ccccc1Cl | 150 | 100 | 90 | 75 | 80 | 100 | 90 | 80 | 80 | 75 | 95 | 80 | 95 | 150 | 100 | 80 | 80 | 100 | 60 | 80 | inhibition of growth at 50 µg/mL (T47D [33]): 100%; IC50 (Vero [34]): 130 µM; growth inhibition (GI) (Vero [35]): 50%; inhibition of growth at 50 µg/mL (A549 [36]): 95%; IC50 (HeLa [37]): 90 µM; inhibition of growth at 50 µg/mL (HeLa [38]): 50%; IC50 (TOV112D [39]): 80 µM; inhibition of growth at 50 µg/mL (HeLa [40]): 80%; IC50 (TOV112D [41]): 80 µM; inhibition of growth at 50 µg/mL (A549 [42]): 95% |

Source: ChEMBL document CHEMBL3596165, “Synthesis, structure elucidation and identification of antiproliferative activities of a novel class of thiophene bioisosteres bearing the privileged 7,8-dihydroimidazo[2,1-c][1,2,4]triazin-4(6H)-one scaffold” (Bioorg Med Chem, 2015)
